Data reported in patent US12447156B2, “Treating progressive familial intrahepatic cholestasis (PFIC) with IBAT inhibitors” (ALBIREO AB, priority 2020, dated 2025).
Entries after “also recorded” stand apart in the source; their conditions may differ.

Experiments:
[1] = tested on: children with PFIC1 or PFIC2; assay: PEDFIC 1: safety (treatment-emergent adverse events)
Source text: The primary safety analysis for PEDFIC 1 was based on the incidence of treatment-emergent adverse events (TEAEs). TEAEs were categorized by causality, severity, and seriousness for odevixibat and placebo. Other safety assessments included physical examinations, vital signs, laboratory tests, and abdominal ultrasounds (liver and spleen).
Secondary endpoints, exploratory endpoints, subgroup analyses, and safety data were summarized descriptively. Adverse events (AEs) were coded using Medical Dictionary for Regulatory Activities version 23.0.

[2] = tested on: children with PFIC; assay: Pooled analysis of PEDFIC 1 and PEDFIC 2 (up to 48 weeks): safety; format: in vivo, human
Source text: This example describes key outcomes with odevixibat in children with PFIC1 (familial intrahepatic cholestasis 1 [FIC1] deficiency) or PFIC2 ((bile salt export pump [BSEP] deficiency) based on pooled analysis of data from the phase 3 PEDFIC 1 (P1; NCT03566238) and PEDFIC 2 (P2; NCT03659916) studies. This pooled analysis covers up to 48 weeks of odevixibat treatment from P1 and through the planned P2 interim data cut. The following outcomes are described: change in serum bile acids (sBAs), change in pruritus score (measured using the PRUCISION scale; range: 0-4), evaluation of growth and sleep parameters, and safety monitoring. Mean changes in autotaxin (linked to cholestatic pruritus intensity) and plasma 7α-hydroxy-4-cholesten-3-one (p-C4; marker of bile acid synthesis) levels were also summarized.

[3] = PEDFIC 1, 120 μg/kg/day, n = 19

Structure (SMILES): CCCCC1(CCCC)CN(c2ccccc2)c2cc(SC)c(OCC(=O)N[C@@H](C(=O)N[C@@H](CC)C(=O)O)c3ccc(O)cc3)cc2S(=O)(=O)N1 [Odevixibat, 1,1-dioxo-3,3-dibutyl-5-phenyl-7-methylthio-8-(N-{(R)-α-[N-((S)-1-carboxypropyl)carbamoyl]-4-hydroxybenzyl}carbamoylmethoxy)-2,3,4,5-tetrahydro-1,2,5-benzothiadiazepine]
- Any TEAE, patients ([1]; PEDFIC 1, 40 μg/kg/day, n = 23): 19 (82.6) n (%)
- Drug-related TEAE, patients ([1]; PEDFIC 1, 40 μg/kg/day, n = 23): 7 (30.4) n (%)
- Drug-related TEAE: ALT increased, patients ([1]; PEDFIC 1, 40 μg/kg/day, n = 23): 2 (8.7) n (%)
- Drug-related TEAE: AST increased, patients ([1]; PEDFIC 1, 40 μg/kg/day, n = 23): 2 (8.7) n (%)
- Drug-related TEAE: Blood bilirubin increased, patients ([1]; PEDFIC 1, 40 μg/kg/day, n = 23): 2 (8.7) n (%)
- Drug-related TEAE: Diarrhea/frequent bowel movements, patients ([1]; PEDFIC 1, 40 μg/kg/day, n = 23): 2 (8.7) n (%)
- Liver-related TEAEs, patients ([1]; PEDFIC 1, 40 μg/kg/day, n = 23): 5 (21.7) n (%)
- Mild TEAE, patients ([1]; PEDFIC 1, 40 μg/kg/day, n = 23): 11 (47.8) n (%)
- Moderate TEAE, patients ([1]; PEDFIC 1, 40 μg/kg/day, n = 23): 7 (30.4) n (%)
- Serious TEAEs, patients ([1]; PEDFIC 1, 40 μg/kg/day, n = 23): 0 n (%)
- Severe TEAE, patients ([1]; PEDFIC 1, 40 μg/kg/day, n = 23): 1 (4.3) n (%)
- TEAEs leading to discontinuation, patients ([1]; PEDFIC 1, 40 μg/kg/day, n = 23): 0 n (%)
- Any TEAE, patients [1, 3]: 16 (84.2) n (%)
- Drug-related TEAE, patients [1, 3]: 7 (36.8) n (%)
- Drug-related TEAE: ALT increased, patients [1, 3]: 2 (10.5) n (%)
- Drug-related TEAE: AST increased, patients [1, 3]: 1 (5.3) n (%)
- Drug-related TEAE: Blood bilirubin increased, patients [1, 3]: 2 (10.5) n (%)
- Drug-related TEAE: Diarrhea/frequent bowel movements, patients [1, 3]: 2 (10.5) n (%)
- Liver-related TEAEs, patients [1, 3]: 6 (31.6) n (%)
- Mild TEAE, patients [1, 3]: 8 (42.1) n (%)
- Moderate TEAE, patients [1, 3]: 6 (31.6) n (%)
- Serious TEAEs, patients [1, 3]: 3 (15.8) n (%)
- Severe TEAE, patients [1, 3]: 2 (10.5) n (%)
- TEAEs leading to discontinuation, patients [1, 3]: 1 (5.3) n (%)
- deaths, treatment-related serious AEs, TEAEs related to liver decompensation ([1]; PEDFIC 1, 24 weeks): No deaths, treatment-related serious AEs, or TEAEs related to liver decompensation occurred; also recorded: no deaths or treatment-related serious adverse events
- tolerability ([1]; PEDFIC 1, 40 and 120 μg/kg/day over 24 weeks): well tolerated
- patients with at least one TEAE ([1]; PEDFIC 1, all doses (35 of 42 patients)): 83%
- Any TEAE, patients ([1]; PEDFIC 1, all doses, n = 42): 35 (83.3) n (%)
- Drug-related TEAE, patients ([1]; PEDFIC 1, all doses, n = 42): 14 (33.3) n (%)
- Drug-related TEAE: ALT increased, patients ([1]; PEDFIC 1, all doses, n = 42): 4 (9.5) n (%)
- Drug-related TEAE: AST increased, patients ([1]; PEDFIC 1, all doses, n = 42): 3 (7.1) n (%)
- Drug-related TEAE: Blood bilirubin increased, patients ([1]; PEDFIC 1, all doses, n = 42): 4 (9.5) n (%)
- Drug-related TEAE: Diarrhea/frequent bowel movements, patients ([1]; PEDFIC 1, all doses, n = 42): 4 (9.5) n (%)
- Liver-related TEAEs, patients ([1]; PEDFIC 1, all doses, n = 42): 11 (26.2) n (%)
- Mild TEAE, patients ([1]; PEDFIC 1, all doses, n = 42): 19 (45.2) n (%)
- Moderate TEAE, patients ([1]; PEDFIC 1, all doses, n = 42): 13 (31.0) n (%)
- Serious TEAEs, patients ([1]; PEDFIC 1, all doses, n = 42): 3 (7.1) n (%)
- Severe TEAE, patients ([1]; PEDFIC 1, all doses, n = 42): 3 (7.1) n (%)
- TEAEs leading to discontinuation, patients ([1]; PEDFIC 1, all doses, n = 42): 1 (2.4) n (%)
- TEAE vomiting ([1]; PEDFIC 1, all doses, placebo 0%): 17%
- TEAE ALT increase ([1]; PEDFIC 1, all doses, placebo 5%): 14%
- TEAE serum bilirubin increase ([1]; PEDFIC 1, all doses, placebo 10%): 12%
- TEAE upper respiratory tract infection ([1]; PEDFIC 1, all doses, placebo 15%): 19%
- TEAEs considered related to study drug by the investigator ([1]; PEDFIC 1, all doses, placebo 15.0%): 33.3%
- TEAE fever ([1]; PEDFIC 1, all doses, placebo 25%): 29%
- treatment-related AEs of diarrhea or frequent bowel movement ([1]; PEDFIC 1, odevixibat-treated patients): 9.5%
- patients with drug-related TEAEs ([2]; pooled P1+P2, 32 of 77 patients): 42%
- patients who experienced any TEAE ([2]; pooled P1+P2, 61 of 77 patients): 79%
- drug-related serious TEAEs ([2]; pooled P1+P2, 77 patients): no drug-related serious TEAEs were reported
- patients reporting severe TEAEs ([2]; pooled P1+P2, 77 patients): Eight
- patients with TEAEs leading to treatment discontinuation ([2]; pooled P1+P2, 77 patients): Four
- incidence of TEAEs ([2]; pooled P1+P2, BSEP subtype 1): 77%
- incidence of TEAEs ([2]; pooled P1+P2, BSEP subtype 2): 86%
- incidence of TEAEs ([2]; pooled P1+P2, patients with PFIC1, placebo in P1 85%): 80%
- incidence of TEAEs ([2]; pooled P1+P2, patients with PFIC2): 80%
- tolerability ([2]; pooled P1+P2, treatment for up to 48 weeks): well tolerated
